For assay [1], the target named is T1, Rat Striatal Nicotinic Receptors ([^3H]NIC binding sites; α4β2) (Rattus norvegicus, UniProt P09483+P12390).
T1 construct: Whole brain, excluding cortex and cerebellum, was homogenized in 20 vol of ice-cold buffer; from tissue; host or cells: rat brain membranes (whole brain excluding cortex and cerebellum)
As to the kind of experiment: Inhibition of [^3H]NIC binding.

Assay [2] has as its target T2, Rat Striatal Nicotinic Receptors ([^3H]MLA binding sites; α7) (Rattus norvegicus, UniProt Q05941).
T2 construct: Whole brain, excluding cortex and cerebellum, was homogenized in 20 vol of ice-cold buffer; from tissue; host or cells: rat brain membranes (whole brain excluding cortex and cerebellum)
The assay is described as follows: Inhibition of [^3H]MLA (methyllycaconitine) binding. The method, boiled down:
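Rat brain membranes were washed by repeated centrifugation at 25,000 g, with a 10 min incubation at 37° C. in between. Samples of 250 μl, containing 100-140 μg of membrane protein, 3 nM [^3H]-methyllycaconitine and test analog in 50 mM Tris assay buffer, were incubated in 96-well plates for 60 min at room temperature. Nonspecific binding was defined with 10 μM S-nicotine. Bound radioactivity was collected on polyethylenimine-soaked GF/B filter plates and counted on a TopCount.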

Assay [3] concerns nicotinic receptors mediating S-nicotine-evoked [^3H]DA release in rat striatal slices. As to the kind of experiment: Inhibition of S-nicotine-evoked [^3H]dopamine release from superfused rat striatal slices. Format: cell-based. Conditions: for inhibition at 0.1 µM: 1 h, read-out: [^3H]DA release, % inhibition of S-nicotine-evoked release. Put shortly: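 Superfused rat striatal slices preloaded with 0.1 μM [3H]DA, in Krebs buffer with nomifensine and pargyline (10 μM each), 34 °C. Analogs (100 nM) given 60 min before 10 μM S-nicotine; tritium overflow by scintillation, inhibition expressed as percent of nicotine-evoked overflow without analog; full concentration-effect curves where […] given.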

[4] abbreviates: full concentration effect, 3 nM [^3H]NIC, nonspecific 10 μM cytisine, rat brain membranes, read-out: [^3H]NIC binding, Ki.
Where [5] appears, read: full concentration effect, [^3H]MLA, nonspecific S-nicotine, rat brain membranes, read-out: [^3H]MLA binding, Ki.
Setting [6] is: 100 nM analog superfused 60 min before NIC 10 μM, rat striatal slices.

Read-outs that look alike come from different tables or passages of the source.

T1 sequence (P09483 31-630): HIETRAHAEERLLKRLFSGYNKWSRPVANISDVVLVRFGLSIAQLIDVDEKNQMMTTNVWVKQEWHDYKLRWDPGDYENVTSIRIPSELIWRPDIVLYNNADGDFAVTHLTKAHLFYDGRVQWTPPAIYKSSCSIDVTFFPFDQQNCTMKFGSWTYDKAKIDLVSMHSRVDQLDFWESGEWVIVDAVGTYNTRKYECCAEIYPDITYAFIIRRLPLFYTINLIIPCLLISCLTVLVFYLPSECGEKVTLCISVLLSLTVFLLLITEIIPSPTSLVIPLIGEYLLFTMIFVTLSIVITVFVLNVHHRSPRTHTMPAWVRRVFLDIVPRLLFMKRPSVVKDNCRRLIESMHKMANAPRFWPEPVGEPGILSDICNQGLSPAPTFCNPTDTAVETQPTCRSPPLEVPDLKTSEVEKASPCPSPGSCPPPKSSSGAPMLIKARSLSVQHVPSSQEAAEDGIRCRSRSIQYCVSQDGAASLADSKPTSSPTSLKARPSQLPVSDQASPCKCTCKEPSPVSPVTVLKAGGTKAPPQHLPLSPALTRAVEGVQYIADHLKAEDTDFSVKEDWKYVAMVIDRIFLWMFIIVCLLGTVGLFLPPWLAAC
T1 sequence (P12390 25-500): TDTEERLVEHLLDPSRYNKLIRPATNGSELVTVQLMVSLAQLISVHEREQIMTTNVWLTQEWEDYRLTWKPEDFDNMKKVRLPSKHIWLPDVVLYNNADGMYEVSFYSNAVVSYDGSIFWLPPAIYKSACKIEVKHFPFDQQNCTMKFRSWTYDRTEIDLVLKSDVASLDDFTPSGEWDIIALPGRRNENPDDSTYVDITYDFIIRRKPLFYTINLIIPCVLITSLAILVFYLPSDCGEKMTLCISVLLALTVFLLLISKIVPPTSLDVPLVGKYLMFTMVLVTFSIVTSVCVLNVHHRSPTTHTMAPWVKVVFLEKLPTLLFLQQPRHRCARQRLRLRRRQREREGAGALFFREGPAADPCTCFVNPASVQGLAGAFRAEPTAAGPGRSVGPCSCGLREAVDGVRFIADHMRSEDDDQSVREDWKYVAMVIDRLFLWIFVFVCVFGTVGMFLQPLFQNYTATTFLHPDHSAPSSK
T2 sequence (Q05941 23-502): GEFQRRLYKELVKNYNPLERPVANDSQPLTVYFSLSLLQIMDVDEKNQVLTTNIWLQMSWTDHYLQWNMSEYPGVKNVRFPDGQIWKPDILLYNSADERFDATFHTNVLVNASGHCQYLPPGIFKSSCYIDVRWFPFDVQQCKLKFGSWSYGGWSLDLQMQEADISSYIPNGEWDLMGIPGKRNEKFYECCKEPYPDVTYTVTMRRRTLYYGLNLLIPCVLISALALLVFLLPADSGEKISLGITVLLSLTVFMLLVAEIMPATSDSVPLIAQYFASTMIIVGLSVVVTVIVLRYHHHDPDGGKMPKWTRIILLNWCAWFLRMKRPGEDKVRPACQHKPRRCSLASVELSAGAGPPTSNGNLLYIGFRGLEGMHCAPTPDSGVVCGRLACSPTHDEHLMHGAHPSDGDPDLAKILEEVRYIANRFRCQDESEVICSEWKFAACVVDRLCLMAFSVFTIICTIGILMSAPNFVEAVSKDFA

As to `Cc1cc[n+](CCC#Cc2ccc(C#CCC[n+]3ccc(C)cc3)cc2)cc1` [Example 98, N,N′-[(1,4-phenylene)-bis-(4-butynyl)]-bis-(4-methyl-pyridinium)dibromide], the Ki (usually a measure of affinity in units of concentration, obtained from inhibition or displacement) in assay [1] (setting [4]) was 8.5 µM; in assay [2] (setting [5]) it was over 100 µM. Further, the inhibition (in general, the relative decrease from the control value, in per cent) at 0.1 µM in assay [3] (setting [6]) is 29%.

As for `Cc1cc[n+](CCCC/C=C\C=C/CCCC[n+]2ccc(C)cc2)cc1` [Example 4, cis-cis-N,N′-(dodeca-5,7-diene-1,12-diyl)-bis-(4-methyl-pyridinium)dibromide], the Ki in assay [1] (setting [4]) and in assay [2] was over 100 µM in each case. Further, in assay [3] (setting [6]), the inhibition at 0.1 µM is 58%.

In the case of `Cc1ccc[n+](CCCCc2ccc(CCCC[n+]3cccc(C)c3)cc2)c1` [Example 12, N,N′-[1,4-phenylenedi-(4-butanyl)]-bis-(3-methylpyridinium)dibromide], the Ki in assay [1] (setting [4]) and in assay [2] (setting [5]) was over 100 µM throughout. Besides, the inhibition at 0.1 µM in assay [3] (setting [6]) was determined as 44%.

As for `Cc1cccc[n+]1CCCC/C=C\C=C/CCCC[n+]1ccccc1C` [Example 2, cis-cis-N,N′-(dodeca-5,7-diene-1,12-diyl)-bis-(2-methyl-pyridinium)dibromide], the inhibition at 0.1 µM in assay [1] (1 h, read-out: [^3H]NIC binding, % inhibition) amounted to 11%; in assay [2] (read-out: [^3H]MLA binding, % inhibition), 4.2%; in assay [3] (Rattus norvegicus) it was 0%.

Regarding `Cc1cc[n+](CCCCC#CC#CCCCC[n+]2ccc(C)c(C)c2)cc1C` [Example 94, N,N′-(5,7-dodecadiyn-1,12-diyl)-bis-(3,4-dimethylpyridinium)dichloride], the figures for the inhibitory constant (Ki) in assay [1] (setting [4]) and in assay [2] (setting [5]) were 8.6 µM and 24.1 µM, respectively. The inhibition at 0.1 µM in assay [3] (setting [6]) was 21%.

`C(#Cc1ccc(C#CCC[n+]2ccc3c(c2)CCCC3)cc1)CC[n+]1ccc2c(c1)CCCC2` [Example 99, N,N′-[(1,4-phenylene)-bis-(4-butynyl)]-bis-(5,6,7,8-tetrahydroisoquiolinium)dibromide]: the figures for the Ki in assay [1] (setting [4]) and in assay [2] (setting [5]) were 8.04 µM and 0.87 µM, respectively. Also, in assay [3] (setting [6]), the inhibition at 0.1 µM came to 14%.

With `Cc1cccc[n+]1CCCCc1ccc(CCCC[n+]2ccccc2C)cc1` [Example 11, N,N′-[1,4-phenylenedi-(4-butanyl)]-bis-(2-methylpyridinium)dibromide], the inhibition constant (Ki) in assay [1] (setting [4]) was 5.94 µM; in assay [2] (setting [5]), over 100 µM. In addition, the inhibition at 0.1 µM in assay [3] (setting [6]) was found to be 37%.

Regarding `Cc1cc[n+](CCCCC#CC#CCCCC[n+]2ccc(C)cc2)cc1` [Example 93, N,N′-(5,7-dodecadiyn-1,12-diyl)-bis-(4-methylpyridinium)dichloride], the Ki in assay [1] (setting [4]) stood at 8.93 µM; in assay [2] (setting [5]) it was 5.11 µM. Also, in assay [3] (setting [6]), the inhibition at 0.1 µM is 19%.

`c1cc(CCCC[n+]2ccc3c(c2)CCCC3)ccc1CCCC[n+]1ccc2c(c1)CCCC2` [Example 16, N,N′-[1,4-phenylenedi-(4-butanyl)]-bis-(5,6,7,8-tetrahydroisoquinolinium)dibromide]: the Ki was over 100 µM in assay [1] (setting [4]) and 15.3 µM in assay [2] (setting [5]).

On to `Cc1ccc[n+](CCC#Cc2ccc(C#CCC[n+]3cccc(C)c3)cc2)c1` [Example 97, N,N′-[(1,4-phenylene)-bis-(4-butynyl)]-bis-(3-methyl-pyridinium)dibromide], for which the results for the Ki in assay [1] (setting [4]) and in assay [2] (setting [5]) were 2.75 ± 0.4 µM and over 100 µM, respectively. Also, the inhibition at 0.1 µM in assay [3] (setting [6]) is 21%.

For the molecule `CN1CCC[C@H]1c1ccc[n+](CCCC/C=C\C=C/CCCC[n+]2cccc([C@@H]3CCCN3C)c2)c1` [Example 1, cis-cis-N,N′-(dodeca-5,7-diene-1,12-diyl)-bis-[3-(2′-S-1-methyl-pyrrolidin-2-yl)-pyridinium]dibromide], the Ki in assay [1] (setting [4]) is 1.09 µM; in assay [2] (setting [5]) it was over 100 µM. Also, the inhibition at 0.1 µM in assay [3] (Rattus norvegicus) turned out to be 11%.

Take `Cc1cc(C)c[n+](CCCCC#CC#CCCCC[n+]2cc(C)cc(C)c2)c1` [Example 95, N,N′-(5,7-dodecadiyn-1,12-diyl)-bis-(3,5-dimethylpyridinium)dichloride]: the results for the Ki in assay [1] and in assay [2] were over 100 µM and 25.6 µM, respectively. Moreover, the IC50 (as a rule, the concentration that gives 50% inhibition) in assay [3] (NIC 10 μM, rat striatal slices) was over 1 µM.

`Cc1cc[n+](CCCCc2ccc(CCCC[n+]3ccc(C)cc3)cc2)cc1` [Example 13, N,N′-[1,4-phenylenedi-(4-butanyl)]-bis-(4-methylpyridinium)dibromide]: the Ki in assay [1] (setting [4]) and in assay [2] (setting [5]) was over 100 µM each time. For the same molecule, the inhibition at 0.1 µM in assay [3] (setting [6]) came out at 32%.

For `C(/C=C\CCCC[n+]1ccc2c(c1)CCCC2)=C/CCCC[n+]1ccc2c(c1)CCCC2` [Example 6, cis-cis-N,N′-(dodeca-5,7-diene-1,12-diyl)-bis-(5,6,7,8-tetrahydro-isoquinolinium)dibromide], the inhibition constant (Ki) in assay [1] (setting [4]) is 5.84 µM; in assay [2] (setting [5]), 3 µM.

Regarding `Cc1ccc[n+](CCCCC#CC#CCCCC[n+]2cccc(C)c2)c1` [Example 92, N,N′-(5,7-dodecadiyn-1,12-diyl)-bis-(3-methylpyridinium)dichloride], the inhibition constant (Ki) was 6.36 µM in assay [1] and over 100 µM in assay [2]. Also, the inhibition at 0.1 µM in assay [3] (setting [6]) was determined as 18%.

Take `Cc1cccc[n+]1CCCCC#CC#CCCCC[n+]1ccccc1C` [Example 91, N,N′-(5,7-dodecadiyn-1,12-diyl)-bis-(2-methylpyridinium)dichloride]: the inhibition constant Ki in assay [1] (setting [4]) turned out to be 4.4 µM; in assay [2] (setting [5]), 23.9 µM. Moreover, in assay [3] (setting [6]), the inhibition at 0.1 µM is 6%.

As for `C(/C=C\CCCC[n+]1cccc2c1CCCC2)=C/CCCC[n+]1cccc2c1CCCC2` [Example 5, cis-cis-N,N′-(dodeca-5,7-diene-1,12-diyl)-bis-(5,6,7,8-tetrahydro-quinolinium)dibromide], the results for the Ki in assay [1] (setting [4]) and in assay [2] (setting [5]) were 3.63 µM and 7.64 µM, respectively.

Turning to `CN1CCC[C@@H]1c1ccc[n+](CCCCc2ccc(CCCC[n+]3cccc([C@H]4CCCN4C)c3)cc2)c1` [Example 10, N,N′-[1,4-phenylenedi-(4-butanyl)]-bis-[3-(2′-S-1-methyl-pyrrolidin-2-yl)-pyridinium]dibromide], the inhibitory constant (Ki) in assay [1] (setting [4]) was 0.63 µM; in assay [2] (setting [5]) it was over 100 µM. Also, the inhibition at 0.1 µM in assay [3] (setting [6]) was 17%.

For `Cc1ccc[n+](CCCC/C=C\C=C/CCCC[n+]2cccc(C)c2)c1` [Example 3, cis-cis-N,N′-(dodeca-5,7-diene-1,12-diyl)-bis-(3-methyl-pyridinium)dibromide], the Ki in assay [1] (setting [4]) and in assay [2] (setting [5]) was over 100 µM throughout. Further, in assay [3] (setting [6]), the inhibition at 0.1 µM amounted to 31%.

Consider `C(C#CCCCC[n+]1ccc2c(c1)CCCC2)#CCCCC[n+]1ccc2c(c1)CCCC2` [Example 96, N,N′-(5,7-dodecadiyn-1,12-diyl)-bis-(5,6,7,8-tetrahydroisoquinolinium)dichloride], for which the inhibitory constant (Ki) in assay [1] (setting [4]) is 11.3 µM; in assay [2] (setting [5]), 5.36 µM.

Values taken from patent US8178678B2, “Bis-quaternary ammonium salts and methods for modulating neuronal nicotinic acetylcholine receptors” (University of Kentucky Research Foundation, priority 2006, dated 2012).
